pEC50: −log10 of the molar value.
test system: monocytic THP1 cells infected with HIV VSV-G pseudotyped GFP-NEF reporter virus; experiment: cells; format: cell-based; conditions: Human immunodeficiency virus 1, THP-1, 24 h

In order of rising pEC50:
1. Cc1cc(/C=C/C#N)cc(C)c1Oc1nc(NC23CC(C#N)(C2)C3)nc2nn(CC(F)F)cc12 [Example 234, (E)-3-((4-(4-(2-cyanovinyl)-2,6-dimethylphenoxy)-2-(2,2-difluoroethyl)-2H-pyrazolo[3,4-d]pyrimidin-6-yl)amino)bicyclo[1.1.1]pentane-1-carbonitrile]  6.48
2. Cc1cc(/C=C/C#N)cc(C)c1Oc1nc(NC23CC(C#N)(C2)C3)nc2c1C1(C)OCC(C(F)(F)F)CN1C2=O (stereo not shown) [Example 253, (E)-3-((4-(4-(2-cyanovinyl)-2,6-dimethylphenoxy)-4b-methyl-10-oxo-7-(trifluoromethyl)-4b,7,8,10-tetrahydro-6H-pyrimido[5′,4′:3,4]pyrrolo[2,1-b][1,3]oxazin-2-yl)amino)bicyclo[1.1.1]pentane-1-carbonitrile]  6.60
3. Cc1cc(/C=C/C#N)cc(C)c1Nc1nc(NC23CC(C#N)(C2)C3)nc2[nH]nc(C)c12 [Example 236, 3-[[4-[4-[(E)-2-cyanovinyl]-2,6-dimethyl-anilino]-3-methyl-11H-pyrazolo[3,4-d]pyrimidin-6-yl]amino]bicyclo[1.1.1]pentane-1-carbonitrile]  6.66
4. C/C(C#N)=C\c1cc(C)c(Oc2nc(NC34CC(C#N)(C3)C4)nc3nn(C)cc23)c(C)c1 [Example 258, (E)-3-((4-(4-(2-cyanoprop-1-en-1-yl)-2,6-dimethylphenoxy)-2-methyl-2H-pyrazolo[3,4-d]pyrimidin-6-yl)amino)bicyclo[1.1.1]pentane-1-carbonitrile]  6.75
5. Cc1cc(/C=C/C#N)cc(C)c1Oc1nc(NC23CC(C#N)(C2)C3)nc2nn(C3CCOC3)cc12 [Example 233, (R,E)-3-((4-(4-(2-cyanovinyl)-2,6-dimethylphenoxy)-2-(tetrahydrofuran-3-yl)-2H-pyrazolo[3,4-d]pyrimidin-6-yl)amino)bicyclo[1.1.1]pentane-1-carbonitrile]  6.80
6. Cc1cc(/C=C/C#N)cc(C)c1Oc1nc(NC23CC(C#N)(C2)C3)nc2c1C(O)(C(F)F)NC2=O (stereo not shown) [Example 229, (E)-3-((4-(4-(2-cyanovinyl)-2,6-dimethylphenoxy)-5-(difluoromethyl)-5-hydroxy-7-oxo-6,7-dihydro-5H-pyrrolo[3,4-d]pyrimidin-2-yl)amino)bicyclo[1.1.1]pentane-1-carbonitrile]  6.91
7. Cc1cc(/C=C/C#N)cc(C)c1Nc1nc(NC23CC(C#N)(C2)C3)nc2nn(C)cc12 [Example 237, 3-[[4-[4-[(E)-2-cyanovinyl]-2,6-dimethyl-anilino]-2-methyl-pyrazolo[3,4-d]pyrimidin-6-yl]amino]bicyclo[1.1.1]pentane-1-carbonitrile]  6.92
8. Cc1cc(/C=C/C#N)cc(C)c1Oc1nc(NC23CC(C#N)(C2)C3)nc2c1C(C)N(c1cnn(C3CCC3)c1)C2=O (stereo not shown) [Example 227, (E)-3-((4-(4-(2-cyanovinyl)-2,6-dimethylphenoxy)-6-(1-cyclobutyl-1H-pyrazol-4-yl)-5-methyl-7-oxo-6,7-dihydro-5H-pyrrolo[3,4-d]pyrimidin-2-yl)amino)bicyclo[1.1.1]pentane-1-carbonitrile]  6.94
9. Cc1cc(/C=C/C#N)cc(C)c1Oc1nc(NC23CC(C#N)(C2)C3)nc2c1C(C)(C)N(c1cnn(C)c1)C2=O [Example 230, (E)-3-((4-(4-(2-cyanovinyl)-2,6-dimethylphenoxy)-5,5-dimethyl-6-(1-methyl-1H-pyrazol-4-yl)-7-oxo-6,7-dihydro-5H-pyrrolo[3,4-d]pyrimidin-2-yl)amino)bicyclo[1.1.1]pentane-1-carbonitrile]  6.94
10. Cc1cc(/C=C/C#N)cc(C)c1Oc1nc(NC23CC(C#N)(C2)C3)nc2nn(-c3cnn(C)c3)cc12 [Example 232, (E)-3-((4-(4-(2-cyanovinyl)-2,6-dimethylphenoxy)-2-(1-methyl-1H-pyrazol-4-yl)-2H-pyrazolo[3,4-d]pyrimidin-6-yl)amino)bicyclo[1.1.1]pentane-1-carbonitrile]  6.96
11. Cc1cc(/C=C/C#N)cc(C)c1Oc1nc(NC23CC(C#N)(C2)C3)nc2c1C(C)(O)N(CC(F)F)C2=O (stereo not shown) [Example 238, (E)-3-((4-(4-(2-cyanovinyl)-2,6-dimethylphenoxy)-6-(2,2-difluoroethyl)-5-hydroxy-5-methyl-7-oxo-6,7-dihydro-5H-pyrrolo[3,4-d]pyrimidin-2-yl)amino)bicyclo[1.1.1]pentane-1-carbonitrile]  7.03
12. Cc1cc(/C=C/C#N)cc(C)c1Oc1nc(NC23CC(C#N)(C2)C3)nc2c1[C@H](C)N(c1cn[nH]c1)C2=O [Example 228, (S,E)-3-((4-(4-(2-cyanovinyl)-2,6-dimethylphenoxy)-5-methyl-7-oxo-6-(1H-pyrazol-4-yl)-6,7-dihydro-5H-pyrrolo[3,4-d]pyrimidin-2-yl)amino)bicyclo[1.1.1]pentane-1-carbonitrile]  7.14
13. Cc1cc(/C=C/C#N)cc(C)c1Oc1nc(NC23CC(C#N)(C2)C3)nc2c1[C@@H](C(F)(F)F)NC2=O [Example 254, (S,E)-3-((4-(4-(2-cyanovinyl)-2,6-dimethylphenoxy)-7-oxo-5-(trifluoromethyl)-6,7-dihydro-5H-pyrrolo[3,4-d]pyrimidin-2-yl)amino)bicyclo[1.1.1]pentane-1-carbonitrile]  7.15
14. Cc1cc(/C=C/C#N)cc(C)c1Oc1nc(NC23CC(C#N)(C2)C3)nc2ccn(C)c12 [Example 250, 3-[[4-[4-[(E)-2-cyanovinyl]-2,6-dimethyl-phenoxy]-5-methyl-pyrrolo[3,2-d]pyrimidin-2-yl]amino]bicyclo[1.1.1]pentane-1-carbonitrile]  7.19
15. Cc1cc(/C=C/C#N)cc(C)c1Oc1nc(NC23CC(C#N)(C2)C3)nc2c1C(C)OC2 (stereo not shown) [Example 263, (E)-3-((4-(4-(2-cyanovinyl)-2,6-dimethylphenoxy)-5-methyl-5,7-dihydrofuro[3,4-d]pyrimidin-2-yl)amino)bicyclo[1.1.1]pentane-1-carbonitrile]  7.22
16. COC(F)(F)C1NC(=O)c2nc(NC34CC(C#N)(C3)C4)nc(Oc3c(C)cc(/C=C/C#N)cc3C)c21 (stereo not shown) [Example 255, (E)-3-((4-2-((2-cyanovinyl)-2,6-dimethylphenoxy)-5-(difluoro(methoxy)methyl)-7-oxo-6,7-dihydro-5H-pyrrolo[3,4-d]pyrimidin-2-yl)amino)bicyclo[1.1.1]pentane-1-carbonitrile]  7.28
17. Cc1cc(/C=C/C#N)cc(C)c1Oc1nc(NC23CC(C#N)(C2)C3)nc2c1C1(C)SCCCN1C2=O (stereo not shown) [Example 246, (E)-3-((4-(4-(2-cyanovinyl)-2,6-dimethylphenoxy)-4b-methyl-10-oxo-4b,7,8,10-tetrahydro-6H-pyrimido[5′,4′:3,4]pyrrolo[2,1-b][1,3]thiazin-2-yl)amino)bicyclo[1.1.1]pentane-1-carbonitrile]  7.38
18. Cc1cc(/C=C/C#N)cc(C)c1Oc1nc(NC23CC(C#N)(C2)C3)nc2c1[C@H](C(F)(F)F)NC2=O [Example 247, (R,E)-3-((4-(4-(2-cyanovinyl)-2,6-dimethylphenoxy)-7-oxo-5-(trifluoromethyl)-6,7-dihydro-5H-pyrrolo[3,4-d]pyrimidin-2-yl)amino)bicyclo[1.1.1]pentane-1-carbonitrile]  7.40
19. Cc1cc(/C=C/C#N)cc(C)c1Oc1nc(NC23CC(C#N)(C2)C3)nc2nn3c(c12)CCCC3 [Example 256, (E)-3-((4-(4-(2-cyanovinyl)-2,6-dimethylphenoxy)-5,6,7,8-tetrahydropyrido[1′,2′:1,5]pyrazolo[3,4-d]pyrimidin-2-yl)amino)bicyclo[1.1.1]pentane-1-carbonitrile]  7.44
20. Cc1cc(/C=C/C#N)cc(C)c1Oc1nc(NC23CC(C#N)(C2)C3)nc2c1[C@H](C)N(CC(F)F)C2=O [Example 240, (S,E)-3-((4-(4-(2-cyanovinyl)-2,6-dimethylphenoxy)-6-(2,2-difluoroethyl)-5-methyl-7-oxo-6,7-dihydro-5H-pyrrolo[3,4-d]pyrimidin-2-yl)amino)bicyclo[1.1.1]pentane-1-carbonitrile]  7.45
21. Cc1cc(/C=C/C#N)cc(C)c1Oc1nc(NC23CC(C#N)(C2)C3)nc2c1C1(C)O[C@@H](C)CCN1C2=O (stereo partly drawn) [Example 241, 3-(((6S)-4-(4-((E)-2-cyanovinyl)-2,6-dimethylphenoxy)-4b,6-dimethyl-10-oxo-4b,7,8,10-tetrahydro-6H-pyrimido[5′,4′:3,4]pyrrolo[2,1-b][1,3]oxazin-2-yl)amino)bicyclo[1.1.1]pentane-1-carbonitrile]  7.46
22. Cc1cc(/C=C/C#N)cc(C)c1Oc1nc(NC23CC(C#N)(C2)C3)nc2nn(-c3ccn(C)n3)cc12 [Example 231, (E)-3-((4-(4-(2-cyanovinyl)-2,6-dimethylphenoxy)-2-(1-methyl-1H-pyrazol-3-yl)-2H-pyrazolo[3,4-d]pyrimidin-6-yl)amino)bicyclo[1.1.1]pentane-1-carbonitrile]  7.51
23. Cc1cc(/C=C/C#N)cc(C)c1Oc1nc(NC23CC(C#N)(C2)C3)nc2nn3c(c12)COCC3 [Example 259, (E)-3-((4-(4-(2-cyanovinyl)-2,6-dimethylphenoxy)-7,8-dihydro-5H-pyrimido[4′,5′:3,4]pyrazolo[5,1-c][1,4]oxazin-2-yl)amino)bicyclo[1.1.1]pentane-1-carbonitrile]  7.63
24. Cc1cc(/C=C/C#N)cc(C)c1Oc1nc(NC23CC(C#N)(C2)C3)nc2nn3c(c12)CCC3 [Example 257, (E)-3-((4-(4-(2-cyanovinyl)-2,6-dimethylphenoxy)-6,7-dihydro-5H-pyrrolo[1′,2′:1,5]pyrazolo[3,4-d]pyrimidin-2-yl)amino)bicyclo[1.1.1]pentane-1-carbonitrile]  7.64
25. Cc1cc(/C=C/C#N)cc(C)c1Oc1nc(NC23CC(C#N)(C2)C3)nc2c1[C@@H](C)N(CC(F)F)C2=O [Example 239, (R,E)-3-((4-(4-(2-cyanovinyl)-2,6-dimethylphenoxy)-6-(2,2-difluoroethyl)-5-methyl-7-oxo-6,7-dihydro-5H-pyrrolo[3,4-d]pyrimidin-2-yl)amino)bicyclo[1.1.1]pentane-1-carbonitrile]  7.73
